Entries after “also recorded” stand apart in the source; their conditions may differ.

Type in all cases: cell-based, human
Data set [1] relates to NZM40 (NRAS Q16H) melanoma cells. Kind of data set: FACS uptake of BODIPY FL conjugates, 200 nM, 5 min (Example 2). Here is the method: FIG. 2. Conjugate compounds coupled to BODIPY FL were tested for uptake using 200 nM each conjugate and 5 minute incubation with melanoma cell line NZM11 (BRAF V600E mutant metastatic melanoma), melanoma cell line NZM40 (NRAS Q16H mutant metastatic melanoma) and melanoma cell line NZM9 (BRAF and NRAS wildtype metastatic melanoma). Mean fluorescent intensities (MFI). 2,000 cells (NZM11), 1,000 cells (NZM40) and 500-1,000 cells (NZM9). Cells were sorted by FACS. Bars represent mean±SD. Results were from a single experiment done in triplicate.
NZM40 is an adherent cell line which was originally derived from a metastatic melanoma from a patient, in 2004. This human metastatic melanoma is identified with code CBA-1381 from Cell bank Australia. […] Ras is a superfamily of proteins implicated in cell growth, survival and differentiation. NRAS (neuroblastoma rat sarcoma) was the first oncogene recognized in melanoma and mutations in NRAS account for 20% of all melanomas. NRAS mutations primarily occur at position 61 and involve amino acid change from glutamine (Q) to arginine (R), lysine (K), leucine (L) or histidine (H). These mutations block NRAS into a GTP-bound state damaging its GTPase activity (FIG. 1). Patients are usually older (>55 years) with previous UV exposure. See Garcia-Alverez et al., 2021.
For screening, NZM11, NZM40 and NZM9 cells were suspended at […] dispensed into 96 well plates and left to settle for 48 hours. Then, 10 μL of 10 mM stock solutions in DMSO for the conjugates were diluted with HBSS to afford 400 nM solution. Next, 400 nM compounds and DMSO solutions were diluted 1:1 with MEMα media to afford 200 nM solutions. After 48 hours the media was removed from the 96 well plates and 200 μL of 200 nM conjugates solutions dispensed to each well (in triplicate) and incubated for 5 minutes at 37 °C. After 5 minutes, the media was removed and cells washed with PBS. Then, 100 μL of TrypLE trypsin (ThermoFisher Scientific) were added to each well and incubated for 5 minutes at 37 °C after which, 100 μL of MEMα media were added and samples were sorted through FACS biosort. The FACS results output were represented as the mean of the fluorescence intensities (in arbitrary units) measured for cells sorted in every sample.

For data set [2], the system named is NZM11 (BRAF V600E) melanoma cells. The data set is described as follows: Time course of uptake by FACS (Example 5). The following applies: 200 nM; for uptake / intensities, in words: NZM11, time course. Here is the method: FIG. 5A: Time course of uptake for 124, 125, 131, 132 conjugate compounds. Tests were performed using 200 nM each conjugate and 5, 30, or 60 minute incubation with melanoma cell line NZM11 (BRAF V600E mutant metastatic melanoma). Mean fluorescent intensities (MFI), n=300 mean±SD. The cells were sorted by FACS.
FIG. 5B: Time course of uptake for 124 and 3-azido BODIPY FL. Tests were performed using 200 nM each compound and 1 or 3 hour incubation with melanoma cell line NZM11 (BRAF V600E mutant metastatic melanoma). Mean fluorescent intensities (MFI). n=2000-3000 mean±SD. The cells were sorted by FACS.
Materials and methods: NZM11 cells were suspended at […] dispensed into 96 well plates and left to settle for 48 hours. 10 μL of 10 mM stock solutions in DMSO from the conjugates coupled to BODIPY were diluted with HBSS to afford 400 nM solution. Then, 400 nM compounds and DMSO solutions were diluted 1:1 with MEMα media to afford 200 nM solutions. After 48 hours the media was removed from the 96 well plates and 200 μL of 200 nM conjugates solutions dispensed to each well (in duplicate) and incubated for 5 minutes, 30 minutes and 60 minutes at 37 °C (for the first test) or 60 minutes and 3 hours (for the second test). After indicated incubation time, the media was removed and cells washed with PBS. 100 μL of TrypLE trypsin (ThermoFisher Scientific) were added to each well and incubated for 6.5 minutes at 37 °C after which, 100 μL of MEMα media were added and samples were sorted through FACS biosort. FACS results output represented the mean of the fluorescence intensities (in arbitrary units) measured for cells sorted in every sample. Uptake rate was calculated by the equation: Uptake rate=(MFI2−MFI1)/(T2−T1)
whereby: MFI=mean fluorescent intensities; T=time (at which time the sample was taken); Uptake rate units: fluorescence intensities units per minute.

The subject of a further data set is Jurkat cells. The data set is described as follows: FACS uptake of BODIPY FL conjugates in Jurkat cells (Example 3). The following applies: 200 nM. Here is the method:
FIG. 3B: Conjugate compounds coupled to BODIPY FL were tested for uptake using 200 nM each conjugate and 5 minute incubation with immortalized T lymphocyte cell line, Jurkat cells. Mean fluorescent intensities (MFI). 1,000 cells sorted by FACS. Bars represent mean±SD. Results represent a single experiment done in duplicate.
Materials and methods: Jurkat cells have been previously shown to be defective in the expression of two lipid phosphatases, PTEN (phosphatase and tensin homologue) and SHIP (SH2-domain-containing inositol polyphosphate 5′ phosphatase). The biological implications of SHIP deficiency in T cells remain under evaluation, but the loss of PTEN leads to activation of the phosphatidylinositol 3-kinase (PI3K)-signalling pathway. See Abraham and Weiss, 2004. This activation of PI3K protein is also on NZM40 melanoma cell line, and represents a key mutation for its sustained proliferation. See Silva et al., 2017. For these experiments, Jurkat cells were diluted on RPMI media (supplemented with 10% FBS+1% penicillin-streptomycin) to afford 400 cells/μL. 2 μL of 100 μM stock solutions in DMSO from 138 and pantothenic acid/pantothenic acid derivatives coupled to BODIPY were diluted with 998 μL of RPMI media (supplemented with 10% FBS+1% penicillin-streptomycin) to afford 200 nM solution. 100,000 cells were dispensed to Eppendorf tubes, centrifuged for 1.5 min at 5000 rcf and the supernatant was removed. The cells then were incubated with 500 μL of solutions at 200 nM for 4.5 min and 37 °C. After the incubation time, cells were centrifuged for 1.5 minutes at 5000 rcf. Supernatant was removed and cell pellet re-suspended in 200 μL fresh RPMI media, transferred to 96 well-plate and run on FACS machine, approximately 1,000 cells analysed.

In the case of `CC1=CC(C)=[N+]2C1=Cc1ccc(CCCn3cc(CCNC(=O)/C=C/NC(=O)[C@@H]4OC(C)(C)OCC4(C)C)nn3)n1[B-]2(F)F` [Compound 125, (R,E)-N-((((3-[4,4-difluoro-5,7-dimethyl-4-bora-3a,4a-diaza-s-indacene-3-yl]propyl)-1H-1,2,3-triazol-4-yl)eth-ylamino)-3-oxoprop-1-enyl)-2,2,5,5-tetramethyl-1,3-dioxane-4-carboxamide], the “uptake (fluorescence intensities)” value in data set [1] is reported as “selective uptake; also recorded: significant uptake”. In addition, in data set [2] (NZM11), the “time at which highest intensities were reached” value came to 60 min and the “times lower uptake rate, as compared to 124” value was determined as 7 times. For the same compound, in the data set with Jurkat cells, the uptake / targeting entry is reported as “showed targeting”.
For `CC1=CC(C)=[N+]2C1=Cc1ccc(CCCn3cc(CCNC(=O)/C=C/NC(=O)[C@H](O)C(C)(C)CO)nn3)n1[B-]2(F)F` [Compound 124], in data set [1], the “higher fluorescence intensities compared to enantiomer 126” value is recorded as 13 times and the “uptake (fluorescence intensities)” value is “highest intensities; also recorded: best targeting activity”. Besides, in data set [2] (NZM11), the “lower intensities at 3 hour than 60 minute incubation” value stood at 4%, the “time after which uptake presents saturation” value came out at 60 min and the “time at which highest intensities were reached” value worked out at 60 min. Further, in data set [2], the “uptake / intensities, in words” value was “outstanding uptake; also recorded: rapid at the first minutes of incubation”. Further, the uptake rate in data set [2] (after five minutes) amounted to 45 units per minute. In data set [2] (at 30 minutes), this compound showed an uptake rate of 23 units per minute. Moreover, in data set [2] (at 60 minutes), the uptake rate is reported as 1 units per minute. Further, the uptake / targeting result with Jurkat cells is “highest uptake”. The “intensities compared to 125 and 127” value in the data set on Jurkat cells (vs 125 and 127) is recorded as “two times higher”.
Consider `CC1=CC(C)=[N+]2C1=Cc1ccc(CCCn3cc(CCNC(=O)/C=C\NC(=O)[C@H]4OC(C)(C)OCC4(C)C)nn3)n1[B-]2(F)F` [Compound 131, (Z)—N-((((3-[4,4-Difluoro-5,7-dimethyl-4-bora-3a,4a-diaza-s-indacene-3-yl]propyl)-1H-1,2,3-triazol-4-yl)ethylamino)-3-oxoprop-1-enyl)-2,2,5,5-tetramethyl-1,3-dioxane-4-carboxamide], for which the “uptake (fluorescence intensities)” value in data set [1] was “showed selectivity”. Besides, in data set [2], the “uptake / intensities, in words” value was “non-significant intensities”. The uptake / targeting result in the data set with Jurkat cells was “showed targeting”.

The record behind these values is patent publication US20260364186A1, “Chemical Conjugates, Compositions, and Methods of Preparation and Use Thereof” (Transfection Holdings Limited, priority 2022, published 2026).
